Among the data in PMC6270996, “Capsaicin: A Potent Inhibitor of Carbonic Anhydrase Isoenzymes” (Molecules, 2014) are Ki values, retold here.

The target in test [1] is T1, human carbonic anhydrase II (hCA II) (Homo sapiens, UniProt P00918).
T1 construct: gene CA2; native enzyme purified from human erythrocytes
Put plainly: esterase assay (p-nitrophenyl acetate hydrolysis, […] nm), Lineweaver-Burk. Type of test: biochemical.

The target in test [2] is T2, human carbonic anhydrase I (hCA I) (Homo sapiens, UniProt P00915).
T2 construct: gene CA1; native enzyme purified from human erythrocytes
T2 sequence (P00915 2-261): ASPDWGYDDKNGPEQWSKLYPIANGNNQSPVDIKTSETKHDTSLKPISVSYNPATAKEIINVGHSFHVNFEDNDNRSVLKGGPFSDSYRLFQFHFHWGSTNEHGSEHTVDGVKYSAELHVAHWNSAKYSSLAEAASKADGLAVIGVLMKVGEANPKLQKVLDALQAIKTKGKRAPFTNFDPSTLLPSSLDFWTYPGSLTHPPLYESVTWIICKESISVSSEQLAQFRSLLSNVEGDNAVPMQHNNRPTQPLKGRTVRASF
The description is as above. The test is classed as biochemical.

A word on the Ki: it is the equilibrium dissociation constant of an inhibitor or competing ligand from its target. Regarding `COc1cc(CNC(=O)CCCC/C=C/C(C)C)ccc1O` [capsaicin, trans-8-methyl-N-vanillyl-6-nonenamide], the Ki was 208 ± 14.4 µM in test [1] and 696 ± 59.4 µM in test [2].
